Data set [1] has as its system H3K27me3 in H3K27M tumor cells (Peds8). Nature of the data set: Global H3K27 trimethylation in H3K27M tumor cells after treatment. The data set is classed as cell-based. The conditions noted are these: vs no treatment (NT), FIG. 6B-D. As for the experimental part: (§1) The role of STAT3 in midline H3K27M tumors (e.g., diffuse midline H3K27M tumors) has not been studied. To further validate STAT3 signaling as a potential drug target in these patients, it was determined if STAT3 is required for proliferation of H3K27M cells. […] Because of the critical dependence of STAT3 signaling in H3K27M tumor cells, the activity of STAT3 (pSTAT3) would be elevated in patients with DIPG tumors. Using treatment naive surgical samples from DIPG patients, an increase (>10-fold) in pSTAT3 levels was observed as compared to non-neoplastic brain tissues from other surgeries (FIG. 5A). Using large cohorts from published data sets, it was also seen a >2-fold increase in STAT3 mRNA expression (RNA-seq) in DIPG patients compared to normal brainy (FIG. 5B). In addition, pSTAT3 expression levels were increased in H3K27M cell lines compared to WT lines in both pediatric and adult high-grade gliomas (FIG. 6). […] The data presented supports a method of treating glioma with H3K27M mutation by restoration of methylation pattern. In one example, the methylation pattern is restored by a H3K27me3 demethylase inhibitor (e.g., GSK-J4).

The test system of a further data set is Peds8 H3K27M cells. Nature of the data set: Cell viability, STAT3 inhibitors, H3K27M cells Peds8. The data set is classed as cell-based. How it is done:
(§2) Results are mean±SD of three independent experiments. B and C. H3K27M cells (Peds8 and DIPG8) are selectively sensitive to inhibition by STAT3 inhibitors. […] C.
as §1

A further data set concerns H3K27M tumor Peds17. On the set-up: species or system mice. The conditions noted are these: mouse, in vivo, po. How it is done:
H3K27M tumor Peds17 treated with STAT3 inhibitor WP1066 (20 mg/kg oral gavage) vs. control (DMSO) for 8 weeks. […] Cohorts of mice (n=10/group), were implanted in the brainstem and BLI was performed weekly using IVIS Lumina imaging system using luciferase transfected tumor cells.
To validate STAT3 as a therapeutic target for H3K27M tumors, the effects on tumor growth with WP1066 were evaluated in intracranial orthotopic xenografts (FIG. 7).

The subject of a further data set is DIPG8 H3K27M cells. Nature of the data set: Cell viability, STAT3 inhibitors, H3K27M cells DIPG8. The data set is classed as cell-based. The conditions noted are these: FIG. 4B/4C. How it is done: as §2, §1
In a further data set the test system is WT SF9427 cell line. Nature of the data set: Cell viability, STAT3 inhibitors, WT SF9427 cell line. Format: cell-based. The conditions noted are these: WT SF9427 cells, FIG. 4B/4C. How it is done: as §2, §1

The values below come from patent US20210137898A1, “METHODS TO TREAT GLIOMAS USING A STAT3 INHIBITOR” (Mayo Foundation for Medical Education and Research, priority 2017, published 2021).

Structures are written as SMILES.

On to `CCOC(=O)CCNc1cc(N2CCc3ccccc3CC2)nc(-c2ccccn2)n1` [GSKJ4], for which the H3K27me3 level entry in data set [1] is listed as “increases H3K27me3”.
As a reminder, the IC50 is the concentration needed to halve the response being measured. High values mean weaker potency, low ones greater potency. Regarding `C[C@H](NC(=O)/C(C#N)=C/c1cccc(Br)n1)c1ccccc1` [WP1066], the IC50 with Peds8 H3K27M cells (Peds8 (H3K27M) cells, FIG. 4B/4C) was determined as 1.9 µM; with DIPG8 H3K27M cells, 2.5 µM; in the data set on WT SF9427 cell line, 62.3 µM. Besides, in the data set on Peds8 H3K27M cells (two H3K27M DIPG cell lines, much less in WT SF9427 cell line), the “cell viability of two H3K27M DIPG cell lines” value is reported as “inhibited cell viability”. For the same molecule, the “toxicities in the mice” value in the data set with H3K27M tumor Peds17 is “no toxicities were noted”. In addition, the H3K27me3 level result in data set [1] was “increases H3K27me3”.
